6 compounds from patent US20220323406A1, “METHODS AND COMPOSITIONS FOR DIFFERENTIATING STEM CELLS” (Massachusetts Institute of Technology, priority 2019, published 2022) can be followed below.

In experiment [1] the test system is ENR+CD organoids (ISC to Paneth cell differentiation). The experiment is described as follows: Primary screen: basal (non-stimulated) lysozyme secretion LYZ.NS, 2.5-D 384-well ENR+CD organoid differentiation. In kind it is cell-based, mouse. The source says:
(§1) High-throughput screening.

The test system is the same in experiment [2]. Nature of the experiment: Primary screen: CCh-stimulated lysozyme secretion LYZ.S, 2.5-D 384-well ENR+CD organoid differentiation. In kind it is cell-based, mouse. The settings on record: primary screen.
Description: as §1

The test system of another experiment is ENR+CD organoids. Nature of the experiment: Primary screen: ATP (CellTiter-Glo 3D, CTG) cell number/viability, 2.5-D 384-well ENR+CD organoids.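 Note: compounds given at plating and again on day 3 over a 6-day differentiation from ENR+CV stem-cell-enriched precursors, ATP measured on day 6, plate median as control.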 The settings on record: primary screen. In general terms: ATP-based viability assays read luminescence as a measure of living cells.
[3] abbreviates: primary screen, standard z score, dose 0.08 uM.
Setting [4] is: primary screen, standard z score, dose 0.40 uM.
Setting [5] is: primary screen, standard z score, dose 2.00 uM.
The mark [6] stands for this setting: primary screen, standard z score, dose 10.00 uM.
[7] abbreviates: dose 0.08 uM, FC relative to plate median.
Setting [8] is: dose 0.40 uM, FC relative to plate median.
[9] abbreviates: dose 2.00 uM, FC relative to plate median.
The mark [10] stands for this setting: dose 10.00 uM, FC relative to plate median.

Take `CNC(=O)[C@H](Cc1ccccc1)NC(=O)[C@H](CC(C)C)[C@H](CSc1cccs1)C(=O)NO` [Batimastat (BB-94)]: the Dose.FC.LYZ.NS in experiment [1] (primary screen, dose 0.08 uM) is on record as −0.003 log2 fold change; in experiment [1] (primary screen, dose 0.40 uM) it was 0.005 log2 fold change; in experiment [1] (primary screen, dose 2.00 uM), 0.081 log2 fold change; in experiment [1] (primary screen, dose 10.00 uM), −0.075 log2 fold change. For the same compound, the “Z.LYZ.NS (standard z score)” value in experiment [1] (primary screen, dose 0.08 uM) was −0.025; in experiment [1] (primary screen, dose 0.40 uM), 0.042; in experiment [1] (primary screen, dose 2.00 uM) it was 0.707; in experiment [1] (primary screen, dose 10.00 uM) it was −0.649. Besides, the Dose.FC.LYZ.S is 0.053 log2 fold change in experiment [2] (dose 0.08 uM), 0.028 log2 fold change in experiment [2] (dose 0.40 uM), 0.056 log2 fold change in experiment [2] (dose 2.00 uM) and −0.107 log2 fold change in experiment [2] (dose 10.00 uM). Further, the Dose.FC.CTG in the experiment on ENR+CD organoids (dose 0.08 uM) is reported as 0.035 log2 fold change; in the experiment on ENR+CD organoids (dose 0.40 uM) it was −0.095 log2 fold change; in the experiment on ENR+CD organoids (dose 2.00 uM), −0.049 log2 fold change; in the experiment on ENR+CD organoids (dose 10.00 uM), −0.283 log2 fold change. The “Z.CTG (standard z score)” value in the experiment with ENR+CD organoids (dose 0.08 uM) is recorded as 0.084; in the experiment on ENR+CD organoids (dose 0.40 uM), −0.226; in the experiment with ENR+CD organoids (dose 2.00 uM), −0.117; in the experiment with ENR+CD organoids (dose 10.00 uM) it was −0.676.

As for `C[C@H]1COC2=C1C(=O)C(=O)c1c2ccc2c1CCCC2(C)C` [Cryptotanshinone], the Dose.FC.LYZ.NS in experiment [1] (primary screen, dose 0.08 uM) is recorded as 0.143 log2 fold change; in experiment [1] (primary screen, dose 0.40 uM), −0.120 log2 fold change; in experiment [1] (primary screen, dose 2.00 uM), −0.182 log2 fold change; in experiment [1] (primary screen, dose 10.00 uM), −0.288 log2 fold change. For the same compound, the Z.LYZ.NS in experiment [1] (setting [3]) is recorded as 1.243; in experiment [1] (setting [4]), −1.047; in experiment [1] (setting [5]) it was −1.585; in experiment [1] (setting [6]), −2.506. The Dose.FC.LYZ.S in experiment [2] (dose 0.08 uM) is on record as 0.156 log2 fold change; in experiment [2] (dose 0.40 uM), −0.105 log2 fold change; in experiment [2] (dose 2.00 uM), −0.288 log2 fold change; in experiment [2] (dose 10.00 uM), −0.432 log2 fold change. In addition, the Dose.FC.CTG is listed as 0.199 log2 fold change in the experiment on ENR+CD organoids (dose 0.08 uM), −0.027 log2 fold change in the experiment on ENR+CD organoids (dose 0.40 uM), −0.184 log2 fold change in the experiment with ENR+CD organoids (dose 2.00 uM) and −0.541 log2 fold change in the experiment with ENR+CD organoids (dose 10.00 uM).

As to `Cn1c(=O)cc(N2CCC[C@@H](N)C2)n(Cc2cc(F)ccc2C#N)c1=O` [Trelagliptin], the Dose.FC.LYZ.NS in experiment [1] (primary screen, dose 0.08 uM) is 0.007 log2 fold change; in experiment [1] (primary screen, dose 0.40 uM), −0.019 log2 fold change; in experiment [1] (primary screen, dose 2.00 uM), −0.033 log2 fold change; in experiment [1] (primary screen, dose 10.00 uM), −0.050 log2 fold change. In addition, the “Z.LYZ.NS (standard z score)” value was 0.059 in experiment [1] (primary screen, dose 0.08 uM); −0.166 in experiment [1] (primary screen, dose 0.40 uM); −0.292 in experiment [1] (primary screen, dose 2.00 uM); −0.433 in experiment [1] (primary screen, dose 10.00 uM). Also, the Dose.FC.LYZ.S in experiment [2] (dose 0.08 uM) is on record as 0.020 log2 fold change; in experiment [2] (dose 0.40 uM), 0.058 log2 fold change; in experiment [2] (dose 2.00 uM), −0.022 log2 fold change; in experiment [2] (dose 10.00 uM) it was −0.109 log2 fold change. The Dose.FC.CTG is 0.202 log2 fold change with ENR+CD organoids (dose 0.08 uM), −0.076 log2 fold change with ENR+CD organoids (dose 0.40 uM), 0.050 log2 fold change with ENR+CD organoids (dose 2.00 uM) and 0.135 log2 fold change in the experiment with ENR+CD organoids (dose 10.00 uM).

For the compound `C=C[C@@]1(C)CC(=O)[C@]2(O)[C@@]3(C)[C@@H](O)CCC(C)(C)[C@@H]3[C@H](O)[C@H](OC(C)=O)[C@@]2(C)O1` [Forskolin], the Dose.FC.LYZ.NS in experiment [1] (primary screen, dose 0.08 uM) is reported as −0.007 log2 fold change; in experiment [1] (primary screen, dose 0.40 uM) it was 0.159 log2 fold change; in experiment [1] (primary screen, dose 2.00 uM), 0.191 log2 fold change; in experiment [1] (primary screen, dose 10.00 uM), 0.219 log2 fold change. The Z.LYZ.NS is on record as −0.058 in experiment [1] (setting [3]), 1.381 in experiment [1] (setting [4]), 1.661 in experiment [1] (setting [5]) and 1.905 in experiment [1] (setting [6]). Also, the Dose.FC.LYZ.S in experiment [2] (dose 0.08 uM) is −0.004 log2 fold change; in experiment [2] (dose 0.40 uM), 0.237 log2 fold change; in experiment [2] (dose 2.00 uM) it was 0.102 log2 fold change; in experiment [2] (dose 10.00 uM), 0.128 log2 fold change. The Dose.FC.CTG is −0.213 log2 fold change with ENR+CD organoids (dose 0.08 uM), −0.175 log2 fold change with ENR+CD organoids (dose 0.40 uM), −0.330 log2 fold change in the experiment on ENR+CD organoids (dose 2.00 uM) and −0.119 log2 fold change in the experiment on ENR+CD organoids (dose 10.00 uM).

Take `Oc1c2ccccc2c2c3c(cccc13)N=N2` [SP600125]: the Dose.FC.LYZ.NS in experiment [1] (primary screen, dose 0.08 uM, FC relative to plate median) turned out to be 0.135 log2 fold change; in experiment [1] (primary screen, dose 0.40 uM, FC relative to plate median) it was 0.027 log2 fold change; in experiment [1] (primary screen, dose 2.00 uM, FC relative to plate median) it was 0.152 log2 fold change; in experiment [1] (primary screen, dose 10.00 uM, FC relative to plate median) it was 0.022 log2 fold change. Further, the Z.LYZ.NS in experiment [1] (primary screen, dose 0.08 uM, standard z score) turned out to be 1.174; in experiment [1] (primary screen, dose 0.40 uM, standard z score) it was 0.232; in experiment [1] (primary screen, dose 2.00 uM, standard z score), 1.321; in experiment [1] (primary screen, dose 10.00 uM, standard z score), 0.187. The Dose.FC.LYZ.S stood at 0.188 log2 fold change in experiment [2] (setting [7]), 0.092 log2 fold change in experiment [2] (setting [8]), 0.090 log2 fold change in experiment [2] (setting [9]) and 0.084 log2 fold change in experiment [2] (setting [10]). The Dose.FC.CTG in the experiment on ENR+CD organoids (setting [7]) was 0.197 log2 fold change; with ENR+CD organoids (setting [8]), 0.145 log2 fold change; in the experiment with ENR+CD organoids (setting [9]) it was 0.103 log2 fold change; in the experiment on ENR+CD organoids (setting [10]), −0.020 log2 fold change.

Regarding `CCOC(=O)c1cncn1[C@H](C)c1ccccc1` [Etomidate], the Dose.FC.LYZ.NS in experiment [1] (primary screen, dose 0.08 uM) is recorded as −0.008 log2 fold change; in experiment [1] (primary screen, dose 0.40 uM), 0.037 log2 fold change; in experiment [1] (primary screen, dose 2.00 uM), 0.015 log2 fold change; in experiment [1] (primary screen, dose 10.00 uM), −0.001 log2 fold change. In addition, the Z.LYZ.NS is on record as −0.065 in experiment [1] (setting [3]), 0.318 in experiment [1] (setting [4]), 0.131 in experiment [1] (setting [5]) and −0.010 in experiment [1] (setting [6]). Besides, the Dose.FC.LYZ.S was 0.053 log2 fold change in experiment [2] (dose 0.08 uM), 0.048 log2 fold change in experiment [2] (dose 0.40 uM), 0.054 log2 fold change in experiment [2] (dose 2.00 uM) and −0.008 log2 fold change in experiment [2] (dose 10.00 uM). For the same compound, the Dose.FC.CTG turned out to be 0.084 log2 fold change in the experiment with ENR+CD organoids (dose 0.08 uM), 0.006 log2 fold change with ENR+CD organoids (dose 0.40 uM), 0.163 log2 fold change in the experiment with ENR+CD organoids (dose 2.00 uM) and 0.039 log2 fold change in the experiment with ENR+CD organoids (dose 10.00 uM).
